Experimental data: patent publication US20220356147A1, “COMPOUNDS AND METHODS FOR POTENTIATING COLISTIN ACTIVITY” (University of Notre Dame du Lac, priority 2019, published 2022)
Where two headings read alike, the source gives them in different places.

Legend:
AB 4106 = experiment: Broth microdilution, standalone MIC of compound; type: cell-based, A. baumannii; conditions: Acinetobacter baumannii, 16 h, read-out: MIC of compound alone, AB 4106
Description: Broth microdilution method for the determination of minimum inhibitory concentrations: Bacteria were cultured for 4 to 6 hours in CAMHB and subcultured to 1.04×10^6 CFU/mL for AB 4106 and 1.96×10^6 CFU/mL for KP B9 in fresh CAMHB. To aliquots (1 mL) was added compound from stock solutions in DMSO, such that the compound concentration equaled the highest concentration tested. Samples were then dispensed (200 μL) into the first row of a 96-well microtiter plate in which all but the final row of subsequent wells were prefilled with 100 μL of the untreated bacterial subculture. The final row was filled with media to act as a sterility control and blank. Row one wells were mixed 6-7 times, then, 100 μL was withdrawn and transferred to row two. Row two wells were mixed 6-7 times followed by a 100 μL transfer from row two to row three. This procedure was used to serially dilute the rest of the rows of the microtiter plate, excluding the last prefilled row, which was used to measure growth in the absence of compound. Plates were then sealed with GLAD Press'n Seal and incubated under stationary conditions at 37 C. […] MIC values were determined as the minimum concentration required to achieve 90% growth inhibition compared to growth in untreated wells.

AB4106 and KPB9 = experiment: Initial screen for colistin resistance suppression, statements in words for both strains; type: cell-based, A. baumannii and K. pneumoniae; conditions: compound at 5 μM
Description: (§1) Broth microdilution method for measurement of colistin potentiation: Bacteria were cultured for 4 to 6 hours in CAMHB and diluted to 1.04×10^6 CFU/mL for AB 4106 and 1.96×10^6 CFU/mL for KP B9 in fresh CAMHB. To aliquots (4 mL) was added compound from stock solutions in DMSO. One aliquot was not dosed to allow measurement of the colistin MIC in the absence of compound. A 1 mL aliquot of each sample was dosed with colistin, and from this 200 μL was dispensed into the first row of a 96-well microtiter plate in which all but the final row of subsequent wells was prefilled with 100 μL of the corresponding compound dosed bacterial suspension The final row was filled with media to act as a sterility control and blank. Row one wells were mixed 6-7 times, then, 100 μL was withdrawn and transferred to row two. Row two wells were mixed 6-7 times followed by a 100 μL transfer from row two to row three. This procedure was used to serially dilute the rest of the rows of the microtiter plate, excluding the last prefilled row, which was used to measure growth in the presence of compound alone. Plates were then sealed with GLAD
(§2) Press'n Seal and incubated under stationary conditions at 37° C. […] MIC values were determined as the minimum concentration required to achieve 90% growth inhibition compared to growth in untreated wells.

[1] = test system: A. baumannii 4106 (AB4106); experiment: Broth microdilution, colistin potentiation; type: cell-based
Description: as §1, §2

[2] = compound at 5 μM, colistin alone 2048 μg/mL

Row | SMILES | MIC (AB 4106; standalone, no colistin) | Colistin potentiation activity in words, compared to IMD-0354 (AB4106 and KPB9) | Colistin MIC fold reduction, AB 4106 [1, 2] | Colistin MIC fold reduction, AB 4106 ([1]; compound at 1 μM) | Colistin MIC fold reduction, AB 4106 ([1]; compound at 3 μM) | Colistin potentiation activity in words, AB4106 ([1]; compound at 5 μM) | MIC (AB 4106)
1 | O=C(Nc1cc(C(F)(F)F)cc(C(F)(F)F)c1)c1cc(O)cc(Cl)c1 [Compound 3, N-(3,5-bis(trifluoromethyl)phenyl)-3-chloro-5-hydroxybenzamide] | > 200 µM | essentially equipotent activity to IMD-0354 |  |  |  |  | 
2 | COc1ccc(O)c(C(=O)Nc2cc(C(F)(F)F)cc(C(F)(F)F)c2)c1 [Compound 11] | > 200 µM |  | 256 fold |  |  |  | 
3 | Cc1ccc(O)c(C(=O)Nc2cc(C(F)(F)F)cc(C(F)(F)F)c2)c1 [Compound 12] | > 200 µM |  | 512 fold | ≤ 16 fold | 256 fold |  | 
4 | O=C(Nc1cc(C(F)(F)F)cc(C(F)(F)F)c1)c1cc(O)ccc1O [Compound 16, N-(3,5-bis(trifluoromethyl)phenyl)-2,5-dihydroxybenzamide] | > 200 µM |  | ≤ 16 fold |  |  | essentially inactive | 
5 | Cc1cc(C)cc(NC(=O)c2cc(Cl)ccc2O)c1 [Compound 20] | > 200 µM |  | 1024 fold | 16 fold | 512 fold |  | 
6 | Cc1ccc(NC(=O)c2cc(Cl)ccc2O)cc1C(F)(F)F [Compound 30] | > 200 µM |  | 32 fold |  |  |  | 
7 | O=C(Nc1ccc(F)cc1Br)c1cc(Cl)ccc1O [Compound 33] | > 200 µM |  | 128 fold |  |  |  | 
8 | O=C(Nc1c(F)cccc1Br)c1cc(Cl)ccc1O [Compound 34] | > 200 µM |  | ≤ 16 fold |  |  |  | 
9 | O=C(Nc1ccc(F)c([N+](=O)[O-])c1)c1cc(Cl)ccc1O [Compound 35, 5-chloro-N-(4-fluoro-3-nitrophenyl)-2-hydroxybenzamide] | > 200 µM |  | 32 fold |  |  | Neither compound displayed significant activity | 
10 | O=C(Nc1ccc(Br)cc1)c1cc(Cl)ccc1O [Compound 37] |  |  | 2048 fold | 128 fold | 1024 fold |  | > 200 µM
11 | O=C(Nc1cccc(Cl)c1)c1cc(Cl)ccc1O [Compound 40] | > 200 µM |  | 1024 fold | ≤ 16 fold | 256 fold |  | 
12 | O=C(Nc1cc(Cl)c(Br)c(Cl)c1)c1cc(Cl)ccc1O [Compound 41, N-(4-bromo-3,5-dichlorophenyl)-5-chloro-2-hydroxybenzamide] | > 200 µM |  | 128 fold |  |  |  | 
13 | O=C(Nc1cc(F)cc(F)c1)c1cc(F)ccc1O [Compound 42] | 200 µM |  | 256 fold |  |  |  | 
14 | O=C(Nc1cc(Cl)cc(Cl)c1)c1cc(F)ccc1O [Compound 43] | > 200 µM |  | 1024 fold | 128 fold | 512 fold |  | 
15 | Cc1cc(C)cc(NC(=O)c2cc(F)ccc2O)c1 [Compound 44, N-(3,5-dimethylphenyl)-5-fluoro-2-hydroxybenzamide] | > 200 µM |  | ≤ 16 fold |  |  |  | 
16 | O=C(Nc1cc(F)cc(F)c1)c1cc(Br)ccc1O [Compound 45] | > 200 µM |  | 1024 fold | 256 fold | 512 fold |  | 
17 | O=C(Nc1cc(Cl)cc(Cl)c1)c1cc(Br)ccc1O [Compound 46] | > 200 µM |  | 512 fold | 32 fold | 256 fold |  | 
18 | O=C(Nc1cc(Br)cc(Br)c1)c1cc(Br)ccc1O [Compound 47] | > 200 µM |  | 1024 fold | 256 fold | 1024 fold |  | 
19 | Cc1cc(C)cc(NC(=O)c2cc(Br)ccc2O)c1 [Compound 48] | > 200 µM |  | 128 fold |  |  |  | 
20 | O=C(Nc1cc(C(F)(F)F)ccc1C(F)(F)F)c1cc(Br)ccc1O [Compound 49] | 200 µM |  | 2048 fold | 256 fold | 1024 fold |  | 
21 | O=C(Nc1cc(F)cc(F)c1)c1cc(I)ccc1O [Compound 50] | > 200 µM |  | 512 fold | 64 fold | 256 fold |  | 
22 | Cc1cc(C)cc(NC(=O)c2cc(I)ccc2O)c1 [Compound 53] | > 200 µM |  | 256 fold |  |  |  | 
23 | O=C(Nc1cc(F)cc(F)c1)c1ccc(C(F)(F)F)cc1O [Compound 54, N-(3,5-difluorophenyl)-2-hydroxy-4-(trifluoromethyl)benzamide] | 200 µM |  | 1024 fold | 64 fold | 512 fold |  | 
24 | O=C(Nc1cc(Cl)cc(Cl)c1)c1ccc(C(F)(F)F)cc1O [Compound 55, N-(3,5-dichlorophenyl)-2-hydroxy-4-(trifluoromethyl)benzamide] | > 200 µM |  | 2048 fold | 256 fold | 1024 fold |  | 
25 | O=C(Nc1cc(Br)cc(Br)c1)c1ccc(C(F)(F)F)cc1O [Compound 56] | > 200 µM |  | 2048 fold | 256 fold | 1024 fold |  | 
26 | Cc1cc(C)cc(NC(=O)c2ccc(C(F)(F)F)cc2O)c1 [Compound 57, N-(3,5-dimethylphenyl)-2-hydroxy-4-(trifluoromethyl)benzamide] | > 200 µM |  | 256 fold |  |  |  | 
27 | Cc1cc(C)cc(NC(=O)c2cccc(Cl)c2O)c1 [Compound 58, 3-chloro-N-(3,5-dimethylphenyl)-2-hydroxybenzamide] | > 200 µM |  | ≤ 16 fold |  |  |  | 
28 | Cc1cc(C)cc(NC(=O)c2cc(Cl)cc(Cl)c2O)c1 [Compound 59, 3,5-dichloro-N-(3,5-dimethylphenyl)-2-hydroxybenzamide] | > 200 µM |  | ≤ 16 fold |  |  |  | 
29 | O=C(Nc1cc(Br)cc(Br)c1)c1cc(Cl)cc(Cl)c1O [Compound 60, 3,5-dichloro-N-(3,5-dibromophenyl)-2-hydroxybenzamide] | 50 µM |  | 2048 fold | 128 fold | 512 fold |  | 
30 | O=C(Nc1cc(Cl)cc(Cl)c1)c1cc(Cl)cc(Cl)c1O [Compound 62] | 100 µM |  | 512 fold | 32 fold | 256 fold |  | 
